Data from patent US20140294921A1, “COMPOSITION FOR TIPICAL USE FOR TREATING SKIN DISORDERS” (SIGMA-TAU INDUSTRIE FAMACEUTICHE RIUNITE S.P.A., priority 2010, published 2014).

Tested on: dithranol-induced mouse ear inflammation (edema)
Test: Dithranol-induced mouse ear inflammation test
Assay type: in vivo
Conditions: Swiss male mice, 10 per group; 20 μL solution painted on left ear at Time 0 and +16 h; dithranol 30 μg in 20 μL acetone at +0.5 h; 6 mm ear disks weighed at +24 h
Procedure: Dithranol is a known inflammatory agent, which induces inflammatory response by releasing free radicals.
The modulatory effects of the compositions of the present invention were tested using the dithranol-induced mouse ear inflammation test described in “Methods in Molecular Biology, 2003, Vol 225; 129-137”, and in “Br. J. Pharmacol. 1991, 104; 990-994”.
Swiss male mice (10 per group) of 6 to 8 weeks old; weighing 28-32 g each; were used. Mice had free access to food and water.
The compounds of the invention were dissolved in water or ethanol (depending on their solubility). 20 μL of the solution containing the compound of the invention, or their combinations, was painted on the left ear (back and front; 10+10 μL) using a Hamilton syringe within 30 seconds (Time 0) The compound tested, and their combinations, are reported in the following
A similar volume of vehicle (water or ethanol) was applied to the other ear (control ear).
After 30 minutes (Time+0.5 h) the irritant, dithranol, 30 μg in 20 μL of acetone was painted on the left ear (back and front, 10+10 μL).
A similar volume of acetone was applied to the other ear.
A group of mice treated only with dithranol (no treatment with the compounds of the invention) was present (control group).
An electric hair dryer for a few seconds to evaporate the solvent was used.
The compounds of the invention were administered again 16 hours from the first treatment (Time+16 h).
After 24 hours from the first treatment (Time+24 h) the animals were killed with an overdose of diethyl ether and the ears were cut off.
A disk from the middle part of each ear was cut off, using a sharp punch 6 mm in diameter.
The disks samples were weighted on a suitable balance, and the extent of the edema (as percentage of inhibition) was calculated according to the formula reported on page 991, right column, of “Br. J. Pharmacol. 1991, 104; 990-994” mentioned above.

## CC(C)=CCC[C@](C)(O)C1CC=C(C)CC1 (stereo partly drawn) [Bisabolol]
  % Inhibit. (extent of the edema as percentage of inhibition): 6%

## Vitamin E
  % Inhibit. (extent of the edema as percentage of inhibition): 8%

## O=C(O)CCCC[C@@H]1SC[C@@H]2NC(=O)N[C@@H]21 [Biotin]
  % Inhibit. (extent of the edema as percentage of inhibition): 6%

## C[N+](C)(C)C[C@H](O)CC(=O)[O-] [L-carnitine]
  % Inhibit. (extent of the edema as percentage of inhibition): 9%

## CC(C)(CO)[C@@H](O)C(=O)NCCCO [Panthenol]
  % Inhibit. (extent of the edema as percentage of inhibition): 7%

## Vitamin B12
  % Inhibit. (extent of the edema as percentage of inhibition): 8%
